Assay results from ChEMBL document CHEMBL3885881, “DrugMatrix”.

Species: Rattus norvegicus
Test: DrugMatrix - Regimen: Daily Repeat
Format: toxicity, organism-based, Sprague-Dawley
Set-up: regimen Daily Repeat, gender Male, age 6-8 weeks
Details: in vivo, po, route oral GAVAGE, […]; for ABSOLUTE BASOPHIL / ABSOLUTE EOSINOPHIL / ABSOLUTE LYMPHOCYTE / ABSOLUTE MONOCYTE / ABSOLUTE SEGMENTED NEUTROPHIL / BASOPHIL / EOSINOPHIL / ERYTHROCYTE COUNT / HEMATOCRIT / HEMOGLOBIN / LEUKOCYTE COUNT / LYMPHOCYTE / MEAN CORPUSCULAR HEMOGLOBIN / MEAN CORPUSCULAR HEMOGLOBIN CONCENTRATION / MEAN CORPUSCULAR VOLUME / MONOCYTE / NEUTROPHIL / NUCLEATED RED BLOOD CELLS / PLATELET COUNT: tissue Blood; for ALANINE AMINOTRANSFERASE / ALBUMIN / ALKALINE PHOSPHATASE / ASPARTATE AMINOTRANSFERASE / BLOOD UREA NITROGEN / CARBON DIOXIDE / CHLORIDE / CHOLESTEROL / CREATINE PHOSPHOKINASE / CREATININE / GLUCOSE / LACTATE DEHYDROGENASE / LIPASE / PHOSPHORUS / POTASSIUM / SODIUM / TOTAL BILIRUBIN / TOTAL PROTEIN / URIC ACID: tissue Plasma
[1] = 0 mg/kg, 72 h, dose level Control, time 3 day
[2] = 0 mg/kg, 120 h, dose level Control, time 5 day
[3] = 300 mg/kg, 72 h, dose level High, time 3 day

## CC(C)c1c(C(=O)Nc2ccccc2)c(-c2ccccc2)c(-c2ccc(F)cc2)n1CC[C@@H](O)C[C@@H](O)CC(=O)O [ATORVASTATIN]
[1]
  ABSOLUTE BASOPHIL: 0 CELLS/uL
  ABSOLUTE EOSINOPHIL: 14 CELLS/uL
  ABSOLUTE LYMPHOCYTE: 11144.67 CELLS/uL
  ABSOLUTE MONOCYTE: 22.5 CELLS/uL
  ABSOLUTE SEGMENTED NEUTROPHIL: 535.5 CELLS/uL
  BASOPHIL: 0%
  EOSINOPHIL: 0.17%
  ERYTHROCYTE COUNT: 5.08 x10E6/uL
  HEMATOCRIT: 32.32%
  HEMOGLOBIN: 12.87 G/DL
  LEUKOCYTE COUNT: 11.72 x10E3/uL
  LYMPHOCYTE: 94.67%
  MEAN CORPUSCULAR HEMOGLOBIN: 25.37 pg
  MEAN CORPUSCULAR HEMOGLOBIN CONCENTRATION: 39.85 G/DL
  MEAN CORPUSCULAR VOLUME: 63.58 fL
  MONOCYTE: 0.17%
  NEUTROPHIL: 5%
  NUCLEATED RED BLOOD CELLS: 0 /100WBC
  PLATELET COUNT: 1084 x10E3/uL
  ALANINE AMINOTRANSFERASE: 67.5 u/L
  ALBUMIN: 4.02 G/DL
  ALKALINE PHOSPHATASE: 374.17 u/L
  ASPARTATE AMINOTRANSFERASE: 83.5 u/L
  BLOOD UREA NITROGEN: 14.5 mg/dL
  CARBON DIOXIDE: 30 mmol/L
  CHLORIDE: 100.5 MEQ/L
  CHOLESTEROL: 71.33 mg/dL
  CREATINE PHOSPHOKINASE: 268.33 u/L
  CREATININE: 0.16 mg/dL
  GLUCOSE: 170.5 mg/dL
  LACTATE DEHYDROGENASE: 81.17 u/L
  LIPASE: 16.67 u/L
  PHOSPHORUS: 10.07 mg/dL
  POTASSIUM: 5.03 MEQ/L
  SODIUM: 142.92 MEQ/L
  TOTAL BILIRUBIN: 0.17 mg/dL
  TOTAL PROTEIN: 5.63 G/DL
  URIC ACID: 0.5 mg/dL
[2]
  ABSOLUTE BASOPHIL: 0 CELLS/uL
  ABSOLUTE EOSINOPHIL: 37.5 CELLS/uL
  ABSOLUTE LYMPHOCYTE: 8049.5 CELLS/uL
  ABSOLUTE MONOCYTE: 82.83 CELLS/uL
  ABSOLUTE SEGMENTED NEUTROPHIL: 646.83 CELLS/uL
  BASOPHIL: 0%
  EOSINOPHIL: 0.5%
  ERYTHROCYTE COUNT: 5.36 x10E6/uL
  HEMATOCRIT: 33.9%
  HEMOGLOBIN: 13.02 G/DL
  LEUKOCYTE COUNT: 8.82 x10E3/uL
  LYMPHOCYTE: 90.17%
  MEAN CORPUSCULAR HEMOGLOBIN: 24.32 pg
  MEAN CORPUSCULAR HEMOGLOBIN CONCENTRATION: 38.42 G/DL
  MEAN CORPUSCULAR VOLUME: 63.32 fL
  MONOCYTE: 1.17%
  NEUTROPHIL: 8.17%
  NUCLEATED RED BLOOD CELLS: 0.17 /100WBC
  PLATELET COUNT: 1231.5 x10E3/uL
  ALANINE AMINOTRANSFERASE: 62 u/L
  ALBUMIN: 3.97 G/DL
  ALKALINE PHOSPHATASE: 303.67 u/L
  ASPARTATE AMINOTRANSFERASE: 84.5 u/L
  BLOOD UREA NITROGEN: 14.83 mg/dL
  CARBON DIOXIDE: 31.83 mmol/L
  CHLORIDE: 97 MEQ/L
  CHOLESTEROL: 68.83 mg/dL
  CREATINE PHOSPHOKINASE: 411.33 u/L
  CREATININE: 0.16 mg/dL
  GLUCOSE: 170.17 mg/dL
  LACTATE DEHYDROGENASE: 88.5 u/L
  LIPASE: 9.5 u/L
  PHOSPHORUS: 9.98 mg/dL
  POTASSIUM: 5.72 MEQ/L
  SODIUM: 141.62 MEQ/L
  TOTAL BILIRUBIN: 0.1 mg/dL
  TOTAL PROTEIN: 5.67 G/DL
  URIC ACID: 0.52 mg/dL
[3]
  ABSOLUTE BASOPHIL: 0 CELLS/uL
  ABSOLUTE EOSINOPHIL: 88 CELLS/uL
  ABSOLUTE LYMPHOCYTE: 7063.33 CELLS/uL
  ABSOLUTE MONOCYTE: 150.67 CELLS/uL
  ABSOLUTE SEGMENTED NEUTROPHIL: 964.67 CELLS/uL
  BASOPHIL: 0%
  EOSINOPHIL: 1%
  ERYTHROCYTE COUNT: 5.19 x10E6/uL
  HEMATOCRIT: 32.23%
  HEMOGLOBIN: 12.9 G/DL
  LEUKOCYTE COUNT: 8.27 x10E3/uL
  LYMPHOCYTE: 86%
  MEAN CORPUSCULAR HEMOGLOBIN: 24.93 pg
  MEAN CORPUSCULAR HEMOGLOBIN CONCENTRATION: 40.13 G/DL
  MEAN CORPUSCULAR VOLUME: 62.1 fL
  MONOCYTE: 1.67%
  NEUTROPHIL: 11.33%
  NUCLEATED RED BLOOD CELLS: 0 /100WBC
  PLATELET COUNT: 924.33 x10E3/uL
  ALANINE AMINOTRANSFERASE: 226.67 u/L
  ALBUMIN: 4.2 G/DL
  ALKALINE PHOSPHATASE: 729 u/L
  ASPARTATE AMINOTRANSFERASE: 518.67 u/L
  BLOOD UREA NITROGEN: 15 mg/dL
  CARBON DIOXIDE: 26.33 mmol/L
  CHLORIDE: 103 MEQ/L
  CHOLESTEROL: 70.67 mg/dL
  CREATINE PHOSPHOKINASE: 416.67 u/L
  CREATININE: 0.17 mg/dL
  GLUCOSE: 160 mg/dL
  LACTATE DEHYDROGENASE: 414.67 u/L
  LIPASE: 12 u/L
  PHOSPHORUS: 10 mg/dL
  POTASSIUM: 4.92 MEQ/L
  SODIUM: 144.23 MEQ/L
  TOTAL BILIRUBIN: 0.37 mg/dL
  TOTAL PROTEIN: 5.67 G/DL
  URIC ACID: 0.67 mg/dL
